Source: paper PMC8782015, “Coumarin Derivatives Exert Anti-Lung Cancer Activity by Inhibition of Epithelial–Mesenchymal Transition and Migration in A549 Cells” (Pharmaceuticals, 2022)

Columns and labels:
A549 cells [1] = conditions: cited from earlier work
A549 cells [2] = assay: MTT cell viability assay on A549 cells; format: cell-based, human; conditions: 24 h; for cytotoxicity (A549 cells viability, in words): single concentration 12 µM
Procedure: All the synthetic coumarins (7, 8a–f, 9a–g, 10, 11, 12a–c, 13a–c, 14–17) were first screened for their in vitro cytotoxic activity at a single concentration (12 µM) against NSCLC cell line (human lung adenocarcinoma A549) for 24 h, using the well-established 3-(4,5-dimethylthiazol-2-yl)-2,5-diphenyltetrazolium bromide (MTT) assay.
The effect of coumarin derivatives on cell viability was evaluated by the MTT assay at a single dose according to the NCI testing protocol or at different concentrations for IC50 determination. Coumarin derivatives were dissolved in dimethyl sulfoxide (DMSO) and then diluted with DMEM. Briefly, cells were plated in 96-well plates (2 × 10^4/well) and each coumarin derivative at 12 µM was added to the culture medium, and the cell cultures were continued for 24 h. Cisplatin (2.6 µM) was used as a reference drug. Thereafter, the medium was replaced with fresh DMEM containing 5 mg/mL MTT. Following an incubation period (4 h) in a humidified CO2 incubator at 37 °C and 5% CO2, the supernatant was removed, and dimethyl sulfoxide solution (DMSO, […]) was added to each cultured plate. After incubation at room temperature for 15 min, the absorbance of the solubilized MTT formazan product was spectrophotometrically measured at 540 nm. Three individual wells were assayed for each treatment, and the percentage viability relative to the control sample was determined as (absorbance of treated cells/absorbance of untreated cells) × 100%. Only the compound that reduced the viability by more than half the value of the control cells were screened in a range of concentration (10^−8 to 10^−3 M) with the A549, H2170, and NHI-3T3 cell lines. The concentration of 9f compound that reduced the viable cell number by 50% (CC50) was determined using a non-linear regression approach, and the mean value of CC50 for each cell type was calculated from triplicate.
Figure 1 Effect of synthetic coumarin derivatives on cell viability. The viability of A549 cells was determined using the MTT assay after exposure at a single concentration (12 µM) of the compounds or cisplatin (2.6 µM) for 24 h. The percentage of inhibition was calculated considering the cells treated with medium (DMEM), which was considered as 100% of cell viability (dotted line). Bars represent the mean ± S.D. from three independent experiments.
1.1. In vitro cytotoxicity assay of 9f compound on A549, H2170 and NIH3T3 cells
In order to determine the cytotoxic effect of 9f compound, the tumor cell lines A549 and H2170, and non-tumor cell line NHI-3T3 (1×10^5 per well) were seeded in the presence of the 9f compound concentration (1×10-3 to 1×10^-8 M) in 96-well microliter culture plate in a humidified CO2 (5%) incubator at 37 °C for 24h. Cell viabilities were measured using MTT assay as described in Materials and Methods Section. Three individual wells were assayed for each treatment and the percentage viability relative to the control sample was determined as (absorbance of treated cells/absorbance of untreated cells)×100%. A nonlinear regression analysis calculated using Prism 7.0 software (Graph- […]
25.8 ± 1.7 µM to NHI-3T3 cells (Figure S1).
Figure S1. Cytotoxicity assay (CC50) of increasing concentration of 9f compound on tumor cell lines (A549 and H2170) and non-tumor cell line (NHI-3T3) after 24 hours using MTT assay. All data were reported as the mean ± S.D. CC50 (M) values were calculated from the dose response curve using Prim 7 software.
(1 picture or pasted object on this page, not shown here)

H2170 cells = assay: MTT cell viability assay (CC50) on H2170 cells; format: cell-based; conditions: Homo sapiens, NCI-H2170, 24 h, mean ± S.D., read-out: CC50 (concentration that reduces the viable cell number by 50%)
From the text: (§1) Among these two compounds, 9f was the most promising, reducing the A549 cells viability to less than 20%. […] Distinct explanations might be used to sustain this fact, including biochemical and metabolic changes between cell lines. While normal cells follow a set of organized metabolic programs, cancer cells show intrinsic or acquired resistance to apoptosis and also a metabolic reprogramming in order to meet the increased energy demands.
(§2) The effect of coumarin derivatives on cell viability was evaluated by the MTT assay at a single dose according to the NCI testing protocol or at different concentrations for IC50 determination. […] After incubation at room temperature for 15 min, the absorbance of the solubilized MTT formazan product was spectrophotometrically measured at 540 nm. Three individual wells were assayed for each treatment, and the percentage viability relative to the control sample was determined as (absorbance of treated cells/absorbance of untreated cells) × 100%. […]
In order to determine the cytotoxic effect of 9f compound, the tumor cell lines A549 and H2170, and non-tumor cell line NHI-3T3 (1×10^5 per well) were seeded in the presence of the 9f compound concentration (1×10-3 to 1×10^-8 M) in 96-well microliter culture plate in a humidified CO2 (5%) incubator at 37 °C for 24h. Cell viabilities were measured using MTT assay as described in Materials and Methods Section. […]

[3] = MTT cell viability assay (CC50) on NIH-3T3 cells; format: cell-based; conditions: mouse, NIH-3T3 fibroblast cells (non-tumour), NIH-3T3 non-cancer cells, mean ± S.D., read-out: CC50 (concentration that reduces the viable cell number by 50%)
From the text: as §1
A549, H2170, and normal mouse fibroblast (NIH-3T3) cell lines were obtained from the Rio de Janeiro Cell Bank (BCRJ). […]
as §2
Figure S1. […] All data were reported as the mean ± S.D. CC50 (M) values were calculated from the dose response curve using Prim 7 software. […]

[4] = tested on: IL-1β-stimulated A549 cells; assay: IL-1β-induced EMT: cell morphology and F-actin (FITC-phalloidin) staining; format: cell-based, human; conditions: 7 µM, 1 ng/mL IL-1β, 24 h
Procedure: (§3) For induction of the EMT process, A549 cells (1 × 10^5 per well) were seeded in 24-well culture plates and treated with 1 ng/mL IL-1β (Peprotech, Rocky Hill, NJ, USA) for 24 h. In the unstimulated cells, DMEM medium was added. Then, the morphological alteration of cells was observed under a microscope. This protocol for EMT induction is as reported in the previous literature. To evaluate the effects of coumarin derivative with respect to EMT induced by IL-1β, cells were pretreated with compound 9f at 7 µM, being this treatment also maintained during stimulation with IL-1β for 24 h.
After 24 h, cells were fixed for 15 min at 4 °C with 4% paraformaldehyde in PBS. […] Cell morphology was determined using an inverted epifluorescence microscope (Nikon Eclipse 50i). Fluorescence quantification was done using ImageJ 1.47 software (NIH, Bethesda, MD, USA). Images were analyzed through the “Measure” menu, which allowed analyzing the fluorescence intensity signal per cell from original photomicrographs.
Figure 2 Compound 9f inhibited IL-1β-induced EMT in vitro. […] Cells were photographed using phase-contrast microscopy (A–D) or fluorescence microscopy (E–H). […] Actin (green) was detected via immunofluorescence in formaldehyde-fixed cells with FITC-conjugated phalloidin (1:100). […] Magnification ×100 (insert, magnification ×200) for phase-contrast microscope and ×400 for fluorescence microscope.

vimentin in A549 cells = assay: Vimentin expression by immunofluorescence and flow cytometry; format: cell-based, human; conditions: 7 µM, 24 h
Procedure: as §3
In another set of experiments, the analysis for vimentin, a well-recognized marker for its selective expression and specific role in the mesenchymal state, was performed. […] Stained cells were analyzed by a flow cytometer (FACSCanto II, Becton Dickinson, San Jose, CA, USA) accompanied with the BD FACSDIVA™ software for data analysis. The cell-associated fluorescence of 5000 cells per sample was measured as mean fluorescence intensity (MFI) in the FL1 channel. The MFI values were corrected for unspecific staining by subtracting the fluorescence of cells unstained (negative control).
Figure 3 Compound 9f downregulates the expression of mesenchymal cell marker vimentin in IL-1β-induced EMT. […] The mesenchymal markers vimentin was detected by immunofluorescence. […] Magnification ×400 for fluorescence microscope. […]

A549 cells [5] = assay: In vitro scratch wound healing assay; format: cell-based, human; conditions: 7 µM, 24 h, IL-1β-stimulated A549 cells
Procedure: To evaluate the effect of 9f on epithelial motility, we performed the scratch assay as described by Cardoso et al.. Cells were maintained in 24-well plates until they reached 90% confluency. Thereafter, a vertical stripe on the cell monolayer was made using a sterile pipette (200 μL) tip. The wells were washed with PBS to remove dead cells and debris, and then, 9f was added at a concentration of 7 µM. As a control, the cells were treated with cell culture medium. Photographs were captured by a digital camera connected to an inverted microscope (Olympus IX70) at 0 and 24 h after scratch. The migration gap area of the cells was measured by ImageJ software (https://imagej.nih.gov/ij/; accessed on 24 November 2020, Center for Information Technology, National Institute of Health, Bethesda, […], USA). Each measurement was repeated three times.
Figure 4 The effect of 9f on the migration of A549 cells assayed by the wound-healing assay. Cells were treated with 9f at 7 µM, and images were captured to calculate the scratch closure. In (A), representative photomicrography images showing the cell migration toward the cell-free area after treatment with DMEM (control) or 9f and after 24 h. […] Values represent mean ± S.D. from three independent experiments. (+++) p < 0.001 compared with respective DMEM-treated cells and (***) p < 0.001 compared with IL-1β-stimulated cell vehicle-treated cells.

CC(C)=CCC/C(C)=C/CC/C(C)=C/COc1ccc2ccc(=O)oc2c1 [umbelliprenin]
IC50 (A549 cells [1]): 52 ± 1.97 µM

O=c1ccc2cc(-c3ccc(Cl)c(Cl)c3)ccc2o1 [Compound 9f]
CC50 (A549 cells [2]; Homo sapiens, A549 cells, mean ± S.D., read-out: CC50 (concentration that reduces the viable cell number by 50%)): 7.1 ± 0.8 µM | CC50 (H2170 cells): 3.3 ± 0.5 µM | CC50 at 24 h [3]: 25.8 µM | actin cytoskeleton reorganization ([4]; FITC-labeled phalloidin): attenuated the changes in the actin cytoskeleton reorganization | morphological changes (mesenchymal characteristics) induced by IL-1β ([4]; phase-contrast microscopy): impairment in changes in its mesenchymal characteristics induced by IL-1β | expression of mesenchymal marker vimentin (vimentin in A549 cells; IL-1β-stimulated (1 ng/mL) A549 cells): significantly diminished | levels of vimentin expression (vimentin in A549 cells; cells unstimulated with IL-1β): did not change | migration (wound closure) (A549 cells [5]): significantly reduced

O=c1ccc2ccc(Cc3ccccc3)cc2o1 [Compound 15]
cytotoxicity (A549 cells viability, in words) (A549 cells [2]): little or no cytotoxicity

O=c1ccc2cc(C#CCCCc3ccccc3)ccc2o1 [Compound 13b]
cytotoxicity (A549 cells viability, in words) (A549 cells [2]): little or no cytotoxicity

O=c1ccc2cc(Cc3ccccc3)ccc2o1 [Compound 14]
cytotoxicity (A549 cells viability, in words) (A549 cells [2]): little or no cytotoxicity

COc1ccccc1-c1ccc2ccc(=O)oc2c1 [Compound 8b]
cytotoxicity (A549 cells viability, in words) (A549 cells [2]): little or no cytotoxicity

O=c1ccc2ccc(CCc3ccccc3)cc2o1 [Compound 16]
cytotoxicity (A549 cells viability, in words) (A549 cells [2]): little or no cytotoxicity

CC(=O)Oc1ccc2cc(-c3ccc(S(C)(=O)=O)cc3)c(=O)oc2c1OC(C)=O [8-(acetyloxy)-3-(4-methanesulfonylphenyl)-2-oxo-2H-chromen-7-yl acetate]
IC50 (A549 cells [1]): 24.2 µM

COc1ccccc1-c1ccc2oc(=O)ccc2c1 [Compound 9c]
cytotoxicity (A549 cells viability, in words) (A549 cells [2]): little or no cytotoxicity

O=c1ccc2ccc(C#CCO)cc2o1 [Compound 12c]
cytotoxicity (A549 cells viability, in words) (A549 cells [2]): little or no cytotoxicity
